Assay results published in patent US12544375B2, “Small molecule therapeutic for parkinson's disease paired with a biomarker of therapeutic activity” (The Board of Trustees of the Leland Stanford Junior …, priority 2019, dated 2026).

Tests used:
Mitofusin (Marf) = assay: Flies fed compound, Mitofusin (Marf) Western blot; assay type: in vivo, fruit flies; details: wild-type flies fed 250 μM for 7 days
Procedure: FIG. 2A-FIG. 2F. Miro1 Reducer Eliminates the Miro1 Defect in PD Fibroblasts. (FIG. 2A) Chemical properties of Miro1 Reducer. (FIG. 2B) Wild-type flies (w^1118) were fed with DMSO alone (0 μM Miro1 Reducer) or Miro1 Reducer in DMSO at 250 μM for 7 days, and lysed and blotted as indicated. The band intensities are normalized to those of Tubulin from the same blots. n=4. (FIG. 2C-FIG. 2E) Fibroblasts were treated, lysed, and blotted as indicated. (FIG. 2C) Band intensities are normalized to those of GAPDH from the same blots and compared to “Healthy-1, no treatment” except otherwise indicated. n=4. (FIG. 2D) Band intensities are normalized to those of ATP5β from the same blots and expressed as a percentage of the mean of “0 μM Miro1 Reducer with CCCP”. Mean±S.E.M is shown. n=3. (FIG. 2E) Band intensities are normalized to those of GAPDH from the same blots and compared to “Healthy-1, no CCCP, no MG132” except otherwise indicated. n=4. […] The Miro1 intensity is normalized to that of mito-dsRed from the same cell and quantified across 37-62 cells from 5 fields each transfection, 3 independent transfections. […]
We assessed the binding ability of 6,835,320 commercialized small molecules to one of the two atypical Rho GTPase domains of Miro1 (amino acids 411-592) (FIG. 6C) by a customized virtual screen using the artificial intelligence (AI) technology. […]

[1] = tested on: LRRK2^G2019S, PINK1 null and SNCA^A53T flies; assay: Dopaminergic neuron number in fly PD models (anti-TH); assay type: in vivo; details: 2.5 μM in food, all three PD models
Procedure: FIG. 4A-FIG. 4I. Miro1 Reducer Rescues PD-Relevant Phenotypes in Flies. For all panels, when Miro1 Reducer was not added, the same volume of the solvent, DMSO, was supplied in fly food. Drug administration (2.5 μM) was started from day 2. (FIG. 4A-FIG. 4C) Survival curves of LRRK2^G2019S (FIG. 4A), PINK1^B9 (imprecise excision, null) and PINK1^RV (the precise excision control for PINK1^B9) (FIG. 4B), and SNCA^A53T flies (FIG. 4C). n=58-150. (FIG. 4D) Dopaminergic (DA) neurons in the PPM1/2 clusters of 22-day old flies were immunostained with anti-TH. (FIG. 4D-FIG. 4F) Quantification of the DA neuron number in the PPL1 or PPM1/2 cluster (total number divided by 2 for each brain). (FIG. 4D) LRRK2^G2019S. n=6-8 brains. (FIG. 4E) PINK1^B9 (“−”) and PINK1^RV (“+”). n=9-16. (FIG. 4F) SNCA^A53T. n=9-11. […]
Immunocytochemistry and Confocal Microscopy. PI (P4170, Sigma) at 2.5 μg/ml or 4′, 6-Diamidino-2-phenylindole (Dapi-D9542, Sigma) at 0.5 μg/ml was applied in culture media at room temperature in the dark for 10 min, MitoSox (M36008, Invitrogen) at 2 μM was applied in culture media at 37° C. for 10 min, or TMRM (T668, Molecular Probes) at 25 nM was applied in culture media at 37° C. for 30 min, and cells were washed with HBSS and imaged immediately in a 35-mm petridish containing the Hibernate E low-fluorescence medium with a 63×/N.A.0.9 water-immersion objective. […]

For `O=C(Nc1ccc(Nc2cc(-n3ccnc3)ncn2)cc1)Nc1cccc(F)c1` [Miro1 Reducer], the “effect on OMM GTPase Mitofusin (Marf)” value (Mitofusin (Marf)) was “did not significantly affect” and the “age-dependent dopaminergic neuronal loss” value [1] was “significantly rescued”.
